From US20130137865A1 (TAISHO PHARMACEUTICAL CO., LTD., priority 2010, published 2013)

Target: T1, rat mGlu2 receptor (Rattus norvegicus, UniProt P31421)
T1 construct: expressed in transfected cells; host or cells: CHO cells
Assay: [35S]GTPγS binding test (1), membranes of CHO cells stably expressing rat mGlu2
Format: biochemical
Conditions: inhibition of glutamic acid (20 μM)-stimulated specific [35S]GTPγS binding
Protocol: (Preparation of Crude Membrane Fraction of CHO Cells Stably Expressing the Rat Metabotropic Glutamate Receptor (mGlu2))
CHO cells stably expressing the rat mGlu2 receptor were cultured in a 10% dialyzed fetal bovine serum-containing Dulbecco's Modified Eagle's Medium [1% proline, 50 units/mL penicillin, 50 μg/mL streptomycin, and 2 mM L-glutamine (to be added when used)] at 37° C. in 5% CO2. Confluent cells were washed with PBS(−) twice, and were then harvested with a cell scraper. Then, the cells were centrifuged at 4° C. at 1000 rpm for 5 minutes to collect. The obtained precipitate was suspended in a 20 mM HEPES buffer (pH 7.4), and then homogenized with a Teflon® homogenizer. The resultant was centrifuged at 4° C. at 48,000×g for 20 minutes to obtain a precipitate again. The obtained precipitate was washed twice by centrifugation, and was then homogenized with the above-mentioned buffer, so as to obtain a crude membrane fraction. The obtained crude membrane fraction was preserved at −80° C.
The frozen membrane fraction as prepared above was thawed when used, and it was then diluted with a binding test buffer (final concentration: 20 mM HEPES, 100 mM NaCl, 10 mM MgCl2, 8.4 μM GDP, 10 μg/mL saponin, and 0.1% BSA). The compound of the Example was added to a membrane fraction (10 μg protein/assay), and the obtained mixture was then incubated at 30° C. for 20 minutes. Thereafter, glutamic acid (final concentration: 20 μM) and [^35S]GTPγS (final concentration: 0.15 nM) were added to the reaction mixture, and then incubated at 30° C. for 1 hour. After completion of the incubation, the reaction mixture was subjected to filtration over a Whatman GF/C filter that had previously been immersed in a 20 mM HEPES buffer (pH 7.4), and the filter was then washed three times with 300 μL of ice-cold 20 mM HEPES buffer (pH 7.4). A scintillation cocktail was added to the resulting filter, and membrane-bound radioactivity was then measured with a liquid scintillation counter.
The amount of [^35S]GTPγS bound in the case of carrying out the above described reaction in the absence of glutamic acid was defined as non-specific binding. The difference between such non-specific bound and the amount of [^35S]GTPγS bound in the presence of glutamic acid was defined as specific binding. Using non-linear analysis, a concentration-inhibition curve was produced. The concentration of the compound of each Example that caused 50% inhibition (IC50 value) of specific binding was determined from each concentration-inhibition curve.

T1 sequence (P31421 19-872): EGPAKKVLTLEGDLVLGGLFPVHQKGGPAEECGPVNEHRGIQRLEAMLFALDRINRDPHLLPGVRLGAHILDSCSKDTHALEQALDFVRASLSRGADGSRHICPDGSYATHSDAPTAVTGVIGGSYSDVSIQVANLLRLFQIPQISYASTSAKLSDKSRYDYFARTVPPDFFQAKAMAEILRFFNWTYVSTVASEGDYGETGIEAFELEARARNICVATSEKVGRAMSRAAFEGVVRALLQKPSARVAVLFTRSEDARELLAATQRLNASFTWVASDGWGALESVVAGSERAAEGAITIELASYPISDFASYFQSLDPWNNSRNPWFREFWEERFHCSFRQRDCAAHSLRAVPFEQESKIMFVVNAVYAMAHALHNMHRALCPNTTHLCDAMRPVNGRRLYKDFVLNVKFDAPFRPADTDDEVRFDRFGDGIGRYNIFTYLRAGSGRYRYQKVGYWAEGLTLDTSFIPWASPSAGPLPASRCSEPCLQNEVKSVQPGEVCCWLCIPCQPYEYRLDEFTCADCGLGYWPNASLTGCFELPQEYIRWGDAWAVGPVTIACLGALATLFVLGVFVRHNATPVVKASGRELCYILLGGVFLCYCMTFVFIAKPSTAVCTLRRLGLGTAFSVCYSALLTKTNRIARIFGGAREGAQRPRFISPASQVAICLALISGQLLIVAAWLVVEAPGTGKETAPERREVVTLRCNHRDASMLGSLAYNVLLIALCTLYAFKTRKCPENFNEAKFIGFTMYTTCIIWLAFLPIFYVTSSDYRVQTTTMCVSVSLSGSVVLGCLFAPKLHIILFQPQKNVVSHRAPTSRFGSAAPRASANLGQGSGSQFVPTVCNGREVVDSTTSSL

Question: Which IC50 does the source give for `Cn1ncc(-c2nc(-c3cccc(S(N)(=O)=O)c3)no2)c1CCc1ccc(C(F)(F)F)cn1` [Example 8, 3-[5-(1-Methyl-5-{2-[5-(trifluoromethyl)pyridin-2-yl]ethyl}-1H-pyrazol-4-yl)-1,2,4-oxadiazol-3-yl]benzenesulfonamide] here?
Answer: The IC50 was 98.5 nM.

Question: With `Cn1ncc(-c2nc(-c3cccc(S(N)(=O)=O)c3)no2)c1CNc1ccc(C(F)(F)F)cc1` [Example 9] as the compound, how does the IC50 read?
Answer: The IC50 was 28.5 nM.

Question: How did the IC50 turn out when `Cn1ncc(-c2nc(-c3cccc(S(N)(=O)=O)c3)co2)c1CCc1ccc(C(F)(F)F)cc1` [Example 10, 3-[2-(1-Methyl-5-{2-[4-(trifluoromethyl)phenyl]ethyl}-1H-pyrazol-4-yl)-1,3-oxazol-4-yl]benzenesulfonamide] was run?
Answer: The IC50 was 10.1 nM.

Question: For `Cn1ncc(-c2nc(-c3ccc(S(=O)(=O)O)cc3)no2)c1CCc1ccc(C(F)(F)F)cc1` [Example 15, 4-[5-(1-Methyl-5-{2-[4-(trifluoromethyl)phenyl]ethyl}-1H-pyrazol-4-yl)-1,2,4-oxadiazol-3-yl]benzenesulfonic acid], which IC50 is on record?
Answer: The IC50 was 39.6 nM.

Question: With `Cn1ncc(-c2nc(-c3ccc(S(N)(=O)=O)cc3)no2)c1CCc1ccc(C(F)(F)F)cc1` [Example 19, 4-[5-(1-Methyl-5-{2-[4-(trifluoromethyl)phenyl]ethyl}-1H-pyrazol-4-yl)-1,2,4-oxadiazol-3-yl]benzenesulfonamide] as the compound, how does the IC50 read?
Answer: Its IC50 is 8.69 nM.

Question: For `Cn1ncc(-c2nc(-c3cccc(S(N)(=O)=O)c3)no2)c1N1Cc2ccc(C(F)(F)F)cc2C1` [Example 21, 3-(5-{1-Methyl-5-[5-(trifluoromethyl)-1,3-dihydro-2H-isoindol-2-yl]-1H-pyrazol-4-yl}-1,2,4-oxadiazol-3-yl)benzenesulfonamide], which IC50 is on record?
Answer: Its IC50 is 14.8 nM.

Question: `Cn1ncc(-c2nc(-c3cccc(S(N)(=O)=O)c3)no2)c1-c1cnn(-c2ccc(Cl)cc2)c1` [Example 25, 3-{5-[1′-(4-Chlorophenyl)-2-methyl-1′H,2H-3,4′-bipyrazol-4-yl]-1,2,4-oxadiazol-3-yl}benzenesulfonamide] was tested. Which IC50 did it give?
Answer: The IC50 was 27.5 nM.

Question: With `CN(C)CCNS(=O)(=O)c1ccc(-c2noc(-c3cnn(C)c3CCc3ccc(C(F)(F)F)cc3)n2)cc1` [Example 31, N-[2-(Dimethylamino)ethyl]-4-[5-(1-methyl-5-{2-[4-(trifluoromethyl)phenyl]ethyl}-1H-pyrazol-4-yl)-1,2,4-oxadiazol-3-yl]benzenesulfonamide] as the compound, how does the IC50 read?
Answer: The IC50 was 22 nM.

Question: `Cn1ncc(-c2nc(-c3cccc(S(N)(=O)=O)c3)no2)c1COc1ccc(C(F)(F)F)cc1` [Example 37, 3-[5-(1-Methyl-5-{[4-(trifluoromethyl)phenoxy]methyl}-1H-pyrazol-4-yl)-1,2,4-oxadiazol-3-yl]benzenesulfonamide] was tested. Which IC50 did it give?
Answer: The IC50 was 1.29 nM.

Question: Which IC50 does the source give for `CCn1ncc(-c2nc(-c3cccc(S(N)(=O)=O)c3)no2)c1CCc1ccc(C(F)(F)F)cc1` [Example 39, 3-[5-(1-Ethyl-5-{2-[4-(trifluoromethyl)phenyl]ethyl}-1H-pyrazol-4-yl)-1,2,4-oxadiazol-3-yl]benzenesulfonamide] here?
Answer: Its IC50 is 12 nM.

Question: How did the IC50 turn out when `NS(=O)(=O)c1cccc(-c2noc(-c3cnn(CF)c3CCc3ccc(C(F)(F)F)cc3)n2)c1` [Example 41, 3-{5-[1-(Fluoromethyl)-5-{2-[4-(trifluoromethyl)phenyl]ethyl}-1H-pyrazol-4-yl]-1,2,4-oxadiazol-3-yl}benzenesulfonamide] was run?
Answer: The IC50 was 9.06 nM.

Question: With `Cc1ccc(OCc2c(-c3nc(-c4cccc(S(N)(=O)=O)c4)no3)cnn2C)cc1` [Example 51, 3-(5-{1-Methyl-5-[(4-methylphenoxy)methyl]-1H-pyrazol-4-yl}-1,2,4-oxadiazol-3-yl)benzenesulfonamide] as the compound, how does the IC50 read?
Answer: Its IC50 is 8.16 nM.

Question: For `Cn1ncc(-c2nc(-c3ccc(S(N)(=O)=O)cc3)no2)c1OCc1ccc(C(F)(F)F)cc1` [Example 56, 4-[5-(1-Methyl-5-{[4-(trifluoromethyl)benzyl]oxy}-1H-pyrazol-4-yl)-1,2,4-oxadiazol-3-yl]benzenesulfonamide], which IC50 is on record?
Answer: The IC50 was 44.7 nM.

Question: Which IC50 does the source give for `COc1cccc(OCc2c(-c3nc(-c4cccc(S(N)(=O)=O)c4)no3)cnn2C)c1` [Example 66, 3-(5-{5-[(3-Methoxyphenoxy)methyl]-1-methyl-1H-pyrazol-4-yl}-1,2,4-oxadiazol-3-yl)benzenesulfonamide] here?
Answer: The IC50 was 4.29 nM.

Question: `Cn1ncc(-c2nc(-c3cccc(S(N)(=O)=O)c3)no2)c1COc1cccc(F)c1` [Example 68, 3-(5-{5-[(3-Fluorophenoxy)methyl]-1-methyl-1H-pyrazol-4-yl}-1,2,4-oxadiazol-3-yl)benzenesulfonamide] was tested. Which IC50 did it give?
Answer: The IC50 was 6.9 nM.

Question: With `Cn1ncc(-c2nc(-c3cccc(S(N)(=O)=O)c3)no2)c1COc1cccc(OC(F)(F)F)c1` [Example 69, 3-[5-(1-Methyl-5-{[3-(trifluoromethoxy)phenoxy]methyl}-1H-pyrazol-4-yl)-1,2,4-oxadiazol-3-yl]benzenesulfonamide] as the compound, how does the IC50 read?
Answer: Its IC50 is 3.56 nM.

Question: Which IC50 does the source give for `Cn1ncc(-c2nc(-c3cccc(S(=O)(=O)O)c3)no2)c1COc1ccc(C(F)(F)F)cc1` [Example 134, 3-[5-(1-Methyl-5-{[4-(trifluoromethyl)phenoxy]methyl}-1H-pyrazol-4-yl)-1,2,4-oxadiazol-3-yl]benzenesulfonic acid] here?
Answer: Its IC50 is 25.1 nM.
